Test system: production of IL-1β, IL-6, and TNF-α by PBMC activated with bacterial lipopolysaccharide (LPS)
Assay: Lipopolysaccharide-activated PBMC cytokine production assay
Format: cell-based
Settings: LPS 100 ng/mL, 18 hours
Procedure: Lipopolysaccharide-Activated PBMC Cytokine Production Assay
Test compounds were evaluated in vitro for the ability to inhibit the production of IL-1β, IL-6, and TNF-α by PBMC activated with bacterial lipopolysaccharide (LPS). Fresh leukocytes were obtained from a local blood bank, and peripheral blood mononuclear cells (PBMCs) were isolated by density gradient centrifugation on Ficol-Paque Plus (Pharmacia).
Preparation of Test Compound Stock Solutions
All reagents were prepared in RPMI 1640+10% v/v human AB serum+1×Pens/Strep/Glu (assay medium). Test compounds were dissolved in 100% DMSO and serially diluted in 96-well polypropylene round bottom micro titer plates (drug plate). Serial dilutions were then diluted 1:250 into assay medium to a 4× working concentration. […]
LPS was prepared to a 4× concentration in assay medium. […] After 18 hours culture supernatants were removed and IL-1β, IL-6, and TNF-α presence in the supernatants was quantified using MSD ECL based technology.
20 μL of culture supernatant were added to MSD plates, and incubated for one hour at room temperature. 20 μL of detection antibody diluted in antibody diluent (1 μg/mL), and 110 μL of 2× Read Buffer P was added, and incubated for one hour at RT. Electrochemiluminescence was measured using the SECTOR HTS Imager (MSD, Gaithersburg, Md.). […]

Structure (SMILES) | IC50
Cc1ccc2c(NC3CC3)noc2c1-c1cc2cnn(-c3c(F)cccc3F)c2n(C)c1=O [Example 1, 5-(3-(cyclopropylamino)-6-methylbenzo[d]isoxazol-7-yl)-1-(2,6-difluorophenyl)-7-methyl-1H-pyrazolo[3,4-b]pyridin-6(7H)-one] | ≤ 100 nM
CNc1noc2c(-c3cc4cnn(-c5c(F)cccc5F)c4n(C)c3=O)c(C)ccc12 [Example 5, 1-(2,6-difluorophenyl)-7-methyl-5-(6-methyl-3-(methylamino)-1,2-benzisoxazol-7-yl)-1,7-dihydro-6H-pyrazolo[3,4-b]pyridin-6-one] | ≤ 100 nM

From patent US8435987B2, “Pyrazolo-pyridinone and pyrazolo-pyrazinone compounds as P38 modulators and methods of use thereof” (Amgen Inc., priority 2007, dated 2013)
